This assay has as its system S. aureus DSM 20231. Kind of assay: Bliss interaction score (quartile over a dose matrix) (fitness difference); higher = more antagonism (negative = synergy). Summed up:
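Quartiles of the Bliss score were taken over technical, biological and donor/recipient replicates. That score is observed fitness minus the product of the single-drug fitness values, which were inferred from combination data. Fitness itself is OD595 at entry into stationary phase divided by the plate's robust no-drug mean, with a cap at 1.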
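Further: first quartile when negative (synergy) and third quartile when positive (antagonism).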

For the compound `CC(=O)Oc1ccccc1C(=O)O` [Acetylsalicylicacid] + C=C1/C(=C\C=C2/CCC[C@]3(C)[C@@H]([C@H](C)CCCC(C)C)CC[C@@H]23)C[C@@H](O)C[C@@H]1O [Alfacalcidol], the Bliss interaction score is -0.294.
For `CC(=O)Oc1ccccc1C(=O)O` [Acetylsalicylicacid] + CC(C)Cc1ccc(C(C)C(=O)O)cc1 [Ibuprofen] the value was -0.275; for `CC(=O)Oc1ccccc1C(=O)O` [Acetylsalicylicacid] + CC(C)c1c(C(=O)Nc2ccccc2)c(-c2ccccc2)c(-c2ccc(F)cc2)n1CC[C@@H](O)C[C@@H](O)CC(=O)O [Atorvastatin], 0.213; for `CC(=O)Oc1ccccc1C(=O)O` [Acetylsalicylicacid] + CCCCc1nc(Cl)c(CO)n1Cc1ccc(-c2ccccc2-c2nnn[nH]2)cc1 [Losartan], 0.178.
For `CC(=O)Oc1ccccc1C(=O)O` [Acetylsalicylicacid] + CCN(CC)C(=O)/C(C#N)=C/c1cc(O)c(O)c([N+](=O)[O-])c1 [Entacapone] the value was 0.143; for `CC(=O)Oc1ccccc1C(=O)O` [Acetylsalicylicacid] + CC[C@H](c1ccc(O)cc1)[C@@H](CC)c1ccc(O)cc1 [Hexestrol], -0.455; for `CC(=O)Oc1ccccc1C(=O)O` [Acetylsalicylicacid] + CN(Cc1cnc2nc(N)nc(N)c2n1)c1ccc(C(=O)N[C@@H](CCC(=O)O)C(=O)O)cc1 [Methotrexate], -0.416.
Consider `CC(=O)Oc1ccccc1C(=O)O` [Acetylsalicylicacid] + C[C@]12CC[C@@H]3c4ccc(O)cc4CC[C@H]3[C@@H]1CC[C@@H]2O [Estradiol], for which the Bliss interaction score came out at 0.162.
In the case of `CC(=O)Oc1ccccc1C(=O)O` [Acetylsalicylicacid] + Cc1c(Cl)cccc1Nc1ccccc1C(=O)O [Tolfenamic] it was -0.263; in that of `CC(C)c1c(C(=O)Nc2ccccc2)c(-c2ccccc2)c(-c2ccc(F)cc2)n1CC[C@@H](O)C[C@@H](O)CC(=O)O` [Atorvastatin] + CC1(C)S[C@@H]2[C@H](NC(=O)Cc3ccccc3)C(=O)N2[C@H]1C(=O)O [PenicillinG], 0.402.
In the case of `CC(C)c1c(C(=O)Nc2ccccc2)c(-c2ccccc2)c(-c2ccc(F)cc2)n1CC[C@@H](O)C[C@@H](O)CC(=O)O` [Atorvastatin] + CO/N=C(\C(=O)N[C@@H]1C(=O)N2C(C(=O)O)=C(COC(C)=O)CS[C@H]12)c1csc(N)n1 [Cefotaxime] it was -0.17; in that of `CC(C)c1c(C(=O)Nc2ccccc2)c(-c2ccccc2)c(-c2ccc(F)cc2)n1CC[C@@H](O)C[C@@H](O)CC(=O)O` [Atorvastatin] + CO[C@@]12[C@H](COC(N)=O)C3=C(C(=O)C(C)=C(N)C3=O)N1C[C@@H]1N[C@@H]12 [MitomycinC], 0.187; in that of `CC(C)c1c(C(=O)Nc2ccccc2)c(-c2ccccc2)c(-c2ccc(F)cc2)n1CC[C@@H](O)C[C@@H](O)CC(=O)O` [Atorvastatin] + COc1cc(Cc2cnc(N)nc2N)cc(OC)c1OC [Trimethoprim], 0.453.
On to `CC(C)c1c(C(=O)Nc2ccccc2)c(-c2ccccc2)c(-c2ccc(F)cc2)n1CC[C@@H](O)C[C@@H](O)CC(=O)O` [Atorvastatin] + O=C(O[C@@H]1Cc2c(O)cc(O)cc2O[C@@H]1c1cc(O)c(O)c(O)c1)c1cc(O)c(O)c(O)c1 [EGCG], for which the Bliss interaction score is -0.118.
As for `Cn1c(=O)c2c(ncn2C)n(C)c1=O` [Caffeine] + CCC[C@@H]1C[C@@H](C(=O)N[C@@H]([C@H]2O[C@H](SC)[C@H](O)[C@@H](O)[C@H]2O)[C@@H](C)O)N(C)C1 [Lincomycin], the Bliss interaction score is -0.292.
Consider `Cn1c(=O)c2c(ncn2C)n(C)c1=O` [Caffeine] + CCC[C@@H]1C[C@@H](C(=O)N[C@@H]([C@H]2O[C@H](SC)[C@H](O)[C@@H](O)[C@H]2O)[C@H](C)Cl)N(C)C1 [Clindamycin], for which the Bliss interaction score is -0.251.
As for `Cn1c(=O)c2c(ncn2C)n(C)c1=O` [Caffeine] + CC[C@H]1OC(=O)[C@H](C)C(=O)[C@H](C)[C@@H](O[C@@H]2O[C@H](C)C[C@H](N(C)C)[C@H]2O)[C@](C)(OC)C[C@@H](C)C(=O)[C@H](C)[C@H]2N(CCCCn3cnc(-c4cccnc4)c3)C(=O)O[C@]12C [Telithromycin], the Bliss interaction score is -0.372.
Turning to `Cn1c(=O)c2c(ncn2C)n(C)c1=O` [Caffeine] + CC[C@H]1OC(=O)[C@H](C)[C@@H](O[C@H]2C[C@@](C)(OC)[C@@H](O)[C@H](C)O2)[C@H](C)[C@@H](O[C@@H]2O[C@H](C)C[C@H](N(C)C)[C@H]2O)[C@](C)(OC)C[C@@H](C)C(=O)[C@H](C)[C@@H](O)[C@]1(C)O [Clarithromycin], the Bliss interaction score is -0.357.
On to `Cn1c(=O)c2c(ncn2C)n(C)c1=O` [Caffeine] + O=C(N[C@H](CO)[C@H](O)c1ccc([N+](=O)[O-])cc1)C(Cl)Cl [Chloramphenicol], for which the Bliss interaction score is -0.3.

(Values after the supplement of paper PMC10627819.)
